Some test systems named below: SK-MEL-5 melanoma; UO-31 renal; OVCAR-5 ovarian; HOP-92 NSCLC; HCT-116 colon; SNB-19 CNS; UACC-257 melanoma; OVCAR-4 ovarian; A549 NSCLC; KM12 colon.
Holding throughout (test): NCI-60 cell line screen, 48 h

Where “and” joins values, the source holds several entries; their conditions need not be identical. Equal values may be shown once.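 Interpolation was linear, between the two tested concentrations surrounding the appropriate level; five concentrations were tested over 48 hours in 96-well plates. GI50 is the concentration that inhibits growth by half. TGI marks complete inhibition of growth.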

The values below come from PubChem BioAssay (NCI).

For `O=C1CCc2c(sc3[nH]c(=S)n(Cc4ccc(Cl)cc4)c(=O)c23)C1`, the GI50 was 0.362 µM in the experiment on SK-MEL-5 melanoma; 0.277 µM with UO-31 renal; 0.743 µM in the experiment with OVCAR-5 ovarian; 0.196 µM with HOP-92 NSCLC; 0.366 µM in the experiment on HCT-116 colon; 0.385 µM with SNB-19 CNS. Further, the GI50 in the experiment on UACC-257 melanoma was 1.33 µM; in the experiment with OVCAR-4 ovarian it was 0.388 µM; in the experiment with A549 NSCLC, 0.497 µM; in the experiment with KM12 colon it was 0.361 µM. The TGI in the experiment on SK-MEL-5 melanoma was 1.13 µM; in the experiment with UO-31 renal it was 1.21 µM; in the experiment on OVCAR-5 ovarian it was 3.6 µM; in the experiment with HOP-92 NSCLC it was 0.816 µM; in the experiment with HCT-116 colon it was > 100 µM; with SNB-19 CNS, > 100 µM. In addition, the TGI in the experiment on UACC-257 melanoma worked out at 5.72 µM; in the experiment with OVCAR-4 ovarian, 28.2 µM; in the experiment on A549 NSCLC, 16.6 µM; with KM12 colon it was 1.68 µM.
`C=C1CC2(OC1=O)C(=O)Nc1ccccc12` (stereo not given): the GI50 in the experiment on SK-MEL-5 melanoma was 6.13 µM; in the experiment with UO-31 renal it was 2.09 µM; in the experiment with OVCAR-5 ovarian, 5.83 µM; in the experiment with HOP-92 NSCLC it was 1.28 µM; with HCT-116 colon, 3.16 µM; with SNB-19 CNS, 32.9 µM. Further, the GI50 in the experiment on UACC-257 melanoma is 1.74 µM; with OVCAR-4 ovarian, 1.5 µM; with A549 NSCLC it was 12.9 µM; in the experiment with KM12 colon, 10.4 µM. Besides, the TGI was 18.8 µM with SK-MEL-5 melanoma; 5.79 µM in the experiment with UO-31 renal; 19.4 µM in the experiment with OVCAR-5 ovarian; 2.75 µM in the experiment with HOP-92 NSCLC; 10.5 µM with HCT-116 colon; > 100 µM in the experiment on SNB-19 CNS. Further, the TGI was 4.24 µM with UACC-257 melanoma, 3.37 µM in the experiment with OVCAR-4 ovarian, 34.3 µM in the experiment on A549 NSCLC and 27.2 µM in the experiment with KM12 colon.
Regarding `CC(=O)OCC1OC(n2c(-c3ccc(C)cc3)cc(-c3ccccc3)c(C#N)c2=O)C(OC(C)=O)C(OC(C)=O)C1OC(C)=O` (stereo not given), the TGI in the experiment on SK-MEL-5 melanoma, with UO-31 renal, in the experiment with OVCAR-5 ovarian, with HOP-92 NSCLC, in the experiment on HCT-116 colon and with SNB-19 CNS was > 100 µM in each case. Besides, the TGI in the experiment on UACC-257 melanoma, with OVCAR-4 ovarian, in the experiment with A549 NSCLC and in the experiment on KM12 colon was > 100 µM throughout.
With `CC(C)(c1ccccc1)c1ccc(OC#N)cc1`, the TGI in the experiment with SK-MEL-5 melanoma is > 100 µM; in the experiment on UO-31 renal it was 98 µM; with OVCAR-5 ovarian it was > 100 µM; in the experiment on HOP-92 NSCLC it was > 100 µM; in the experiment with HCT-116 colon it was > 65.7 µM; in the experiment on SNB-19 CNS, > 100 µM. The TGI in the experiment on UACC-257 melanoma, in the experiment with OVCAR-4 ovarian, with A549 NSCLC and with KM12 colon was > 100 µM each time.
On to `CN(Cc1cc(C(C)(C)C)cc(Br)c1O)Cc1cc(C(C)(C)C)cc(Br)c1O`, for which the TGI with SK-MEL-5 melanoma was determined as 7.76 µM; in the experiment with UO-31 renal, 12.7 µM; in the experiment with OVCAR-5 ovarian, 18.5 µM; in the experiment with HOP-92 NSCLC, 12.8 µM; with HCT-116 colon, 9.46 µM; in the experiment on SNB-19 CNS, 19.3 µM. The TGI came to 5.85 µM in the experiment with UACC-257 melanoma, 17.8 µM in the experiment with OVCAR-4 ovarian, 13.7 µM in the experiment with A549 NSCLC and 12.9 µM with KM12 colon.
Regarding `COc1cc(Nc2ncc(F)c(Nc3ccc4c(n3)N(COP(=O)(O)O)C(=O)C(C)(C)O4)n2)cc(OC)c1OC`, the GI50 is 5.51 µM and 3.54 µM in the experiment on SK-MEL-5 melanoma; 0.685 µM and 0.348 µM in the experiment on UO-31 renal; 1.7 µM and 1.38 µM with OVCAR-5 ovarian; 1.25 µM and 0.345 µM with HOP-92 NSCLC; 3.25 µM and 3.02 µM with HCT-116 colon; 2.68 µM and 2.84 µM in the experiment on SNB-19 CNS. Also, the GI50 with UACC-257 melanoma is 10.6 µM and 5.57 µM; in the experiment with OVCAR-4 ovarian, 1.69 µM and 1.74 µM; with A549 NSCLC, 2.27 µM and 2.11 µM; in the experiment on KM12 colon it was 0.498 µM and 0.409 µM. In addition, the TGI in the experiment with SK-MEL-5 melanoma is 33.3 µM and > 10 µM; in the experiment on UO-31 renal it was 5.72 µM and 1.65 µM; in the experiment with OVCAR-5 ovarian, 9.62 µM and > 10 µM; in the experiment with HOP-92 NSCLC, 4.23 µM and 1.87 µM; with HCT-116 colon, 23.5 µM and > 10 µM; with SNB-19 CNS, 21.3 µM and > 10 µM. In addition, the TGI in the experiment on UACC-257 melanoma was > 90.7 µM; in the experiment with OVCAR-4 ovarian, 6.31 µM and 6.78 µM; in the experiment on A549 NSCLC it was > 26.8 µM; in the experiment on KM12 colon, 15.4 µM and > 10 µM.
On to `Cn1cc2ccccc2c1-c1nc(F)nc(OCC(=O)[C@H]2CCC3[C@@H]4CCC5=CC(=O)CC[C@]5(C)C4[C@@H](O)C[C@@]32C)n1` (stereo not given in full), for which the TGI in the experiment with SK-MEL-5 melanoma was 44.9 µM; with UO-31 renal it was 37.8 µM; in the experiment with OVCAR-5 ovarian, > 73.7 µM; in the experiment with HOP-92 NSCLC, 36.6 µM; with HCT-116 colon, 27 µM; in the experiment with SNB-19 CNS, 36 µM. Besides, the TGI in the experiment on UACC-257 melanoma was 37.3 µM; with OVCAR-4 ovarian it was 29.6 µM; in the experiment with A549 NSCLC, > 77.8 µM; in the experiment with KM12 colon, 33.3 µM.
